{
  "source": "paper PMC4772679",
  "about": "(Environmental toxicology and chemistry / SETAC, 2015)",
  "key": {"BG1LucERβc9 cells [1]": {"test_system": "BG1LucERβc9 cells", "assay": "Antagonism of agonist-induced luciferase activity in BG1LucERβc9 cells", "type": "cell-based, human", "conditions": "for inhibition of E2-inducible reporter gene expression in BG1LucERβc9 cells: Supplemental Figure S5"}, "ERβ": {"molecular_target": "ERβ (Homo sapiens, UniProt Q92731)", "sequence (Q92731 whole entry)": "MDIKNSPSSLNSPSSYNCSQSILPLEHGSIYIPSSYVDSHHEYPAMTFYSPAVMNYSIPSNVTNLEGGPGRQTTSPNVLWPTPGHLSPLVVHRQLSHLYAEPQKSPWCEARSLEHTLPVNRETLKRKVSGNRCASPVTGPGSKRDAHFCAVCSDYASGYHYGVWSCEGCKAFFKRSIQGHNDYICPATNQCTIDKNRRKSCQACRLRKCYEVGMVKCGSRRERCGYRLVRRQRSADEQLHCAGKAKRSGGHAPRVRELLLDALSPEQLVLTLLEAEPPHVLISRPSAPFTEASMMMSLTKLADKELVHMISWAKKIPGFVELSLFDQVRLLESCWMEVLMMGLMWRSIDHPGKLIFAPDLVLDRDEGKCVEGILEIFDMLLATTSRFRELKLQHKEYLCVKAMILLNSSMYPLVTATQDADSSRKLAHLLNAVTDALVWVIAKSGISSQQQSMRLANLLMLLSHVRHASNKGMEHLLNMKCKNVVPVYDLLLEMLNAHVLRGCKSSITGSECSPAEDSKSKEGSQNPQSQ", "assay": "ER-responsive luciferase reporter", "type": "cell-based", "conditions": "SKBR3 cells, ERβ expression plasmid, 24 h, mean ± SD of three experiments"}, "ERα": {"molecular_target": "T1, ERα (Homo sapiens, UniProt P03372)", "T1 sequence (P03372 1-595)": "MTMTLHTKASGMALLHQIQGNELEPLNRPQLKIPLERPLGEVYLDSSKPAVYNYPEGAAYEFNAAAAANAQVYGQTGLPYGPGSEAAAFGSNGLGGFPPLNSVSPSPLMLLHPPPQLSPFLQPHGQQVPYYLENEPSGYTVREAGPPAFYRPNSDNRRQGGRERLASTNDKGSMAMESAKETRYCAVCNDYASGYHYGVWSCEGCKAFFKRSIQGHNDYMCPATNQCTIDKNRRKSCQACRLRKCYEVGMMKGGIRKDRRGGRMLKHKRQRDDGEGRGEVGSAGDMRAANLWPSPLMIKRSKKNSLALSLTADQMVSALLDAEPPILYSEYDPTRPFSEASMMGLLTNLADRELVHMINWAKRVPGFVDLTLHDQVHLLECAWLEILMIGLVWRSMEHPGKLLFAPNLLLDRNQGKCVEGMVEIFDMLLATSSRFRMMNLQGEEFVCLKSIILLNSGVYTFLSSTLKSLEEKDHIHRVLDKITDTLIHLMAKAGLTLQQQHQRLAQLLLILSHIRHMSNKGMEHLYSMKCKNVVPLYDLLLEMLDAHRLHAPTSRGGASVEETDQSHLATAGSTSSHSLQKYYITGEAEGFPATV", "assay": "ER-responsive luciferase reporter", "type": "cell-based", "conditions": "read-out: EC50 [M], ERα; SKBR3 cells, ERα expression plasmid, 24 h, mean ± SD of three experiments"}, "BG1Luc4E2 cells [2]": {"test_system": "BG1Luc4E2 cells", "assay": "Luciferase induction in stably transfected BG1Luc4E2 cells", "type": "cell-based, human", "conditions": "for MDL (minimal detection limit) [M], BG1Luc4E2 / EC50 / luciferase activity in BG1Luc4E2 cells, initial library screen: 24 h; for Maximum Induction (RLU), BG1Luc4E2: at 30 µM Genistein, 10 µM Br-ERβ-041, 0.1 nM E2, 1 µM PPT; for EC50: read-out: EC50 [M], BG1Luc4E2; for luciferase activity in BG1Luc4E2 cells, initial library screen: 10 µM, normalized to 1 nM E2, single screen in triplicate"}, "BG1LucERβc9 cells [3]": {"test_system": "BG1LucERβc9 cells", "assay": "Luciferase induction in stably transfected BG1LucERβc9 cells", "type": "cell-based, human", "conditions": "for MDL (minimal detection limit) [M], BG1LucERβc9 / EC50: 24 h; for Maximum Induction (RLU), BG1LucERβc9: at 30 µM Genistein, 10 µM Br-ERβ-041, 0.1 nM E2, 1 µM PPT; for EC50: read-out: EC50 [M], BG1LucERβc9"}, "BG1Luc4E2 cells [4]": {"test_system": "BG1Luc4E2 cells", "assay": "Antagonism of agonist-induced luciferase activity in BG1Luc4E2 cells", "type": "cell-based, human", "conditions": "p < 0.05, Student's t-test"}, "[5]": {"conditions": "mean ± SD of 8–16 experiments, genistein and Br-ERβ-041 at 50% of maximum E2 activity"}},
  "note": "Read-outs that look alike come from different tables or passages of the source.",
  "data": [
    {"smiles": "CC/C(=C(\\c1ccc(O)cc1)c1ccc(OCCN(C)C)cc1)c1ccccc1", "note": "[Chemical 4-OHT, 4-hydroxy tamoxifen]", "values": [
      {"measurement": "inhibition of E2-inducible reporter gene expression in BG1LucERβc9 cells", "setting": "BG1LucERβc9 cells [1]", "value": "inhibit E2-inducible reporter gene expression"}
    ]},
    {"smiles": "CCCc1c(-c2ccc(O)cc2)nn(-c2ccc(O)cc2)c1-c1ccc(O)cc1", "note": "[PPT, 4,4’,4”-(4-Proply-[1H]-pyrazole-1,3,5-triyl)trisphenol]", "values": [
      {"measurement": "EC50 [M], ERβ", "setting": "ERβ", "value": "No induction"},
      {"measurement": "EC50", "setting": "ERα", "value": "2.5e-10", "unit": "M"},
      {"measurement": "MDL (minimal detection limit) [M], BG1Luc4E2", "setting": "BG1Luc4E2 cells [2]", "value": "1e-10", "unit": "M"},
      {"measurement": "Maximum Induction (RLU), BG1Luc4E2", "setting": "BG1Luc4E2 cells [2]", "value": "11,422 ± 356 RLU"},
      {"measurement": "EC50", "setting": "BG1Luc4E2 cells [2]; [5]", "value": "6.7e-10", "unit": "M"},
      {"measurement": "MDL (minimal detection limit) [M], BG1LucERβc9", "setting": "BG1LucERβc9 cells [3]", "value": "1e-10", "unit": "M"},
      {"measurement": "Maximum Induction (RLU), BG1LucERβc9", "setting": "BG1LucERβc9 cells [3]", "value": "7,017 ± 188 RLU"},
      {"measurement": "EC50", "setting": "BG1LucERβc9 cells [3]; [5]", "value": "3.2e-09", "unit": "M"}
    ]},
    {"smiles": "C[C@]12CC[C@@H]3c4ccc(O)cc4C[C@@H](CCCCCCCCC[S+]([O-])CCCC(F)(F)C(F)(F)F)[C@H]3[C@@H]1CC[C@@H]2O", "note": "(stereo partly drawn) [fulvestrant, Fulvestrant]", "values": [
      {"measurement": "antagonism of Br-ERβ-041 induced activity in BG1Luc4E2 cells versus BG1LucERβc9 cells", "setting": "BG1Luc4E2 cells [4]", "value": "significantly more potent antagonist"},
      {"measurement": "inhibition of E2-inducible reporter gene expression in BG1LucERβc9 cells", "setting": "BG1LucERβc9 cells [1]", "value": "inhibit E2-inducible reporter gene expression"},
      {"measurement": "concentration-dependent antagonism of E2-induced luciferase activity, BG1LucERβc9 vs BG1Luc4E2 cells", "setting": "BG1LucERβc9 cells [1]; comparison of both cell lines", "value": "comparable"}
    ]},
    {"smiles": "O=c1c(-c2ccc(O)cc2)coc2cc(O)cc(O)c12", "note": "[Genistein, genistein]", "values": [
      {"measurement": "MDL (minimal detection limit) [M], BG1Luc4E2", "setting": "BG1Luc4E2 cells [2]", "value": "1e-07", "unit": "M"},
      {"measurement": "ERα-dependent reporter gene induction in BG1Luc4E2 cells at low concentration", "setting": "BG1Luc4E2 cells [2]; Br-ERβ-041 31.6 nM, genistein 10 nM, preliminary studies, data not shown", "value": "failed to induce"},
      {"measurement": "EC50", "setting": "BG1Luc4E2 cells [2]; Homo sapiens", "value": "1.7e-07", "unit": "M"},
      {"measurement": "Maximum Induction (RLU), BG1Luc4E2", "setting": "BG1Luc4E2 cells [2]", "value": "17,623 ± 575 RLU"},
      {"measurement": "MDL (minimal detection limit) [M], BG1LucERβc9", "setting": "BG1LucERβc9 cells [3]", "value": "1e-08", "unit": "M"},
      {"measurement": "EC50", "setting": "BG1LucERβc9 cells [3]; Homo sapiens", "value": "2e-08", "unit": "M"},
      {"measurement": "Maximum Induction (RLU), BG1LucERβc9", "setting": "BG1LucERβc9 cells [3]", "value": "8,804 ± 306 RLU"}
    ]},
    {"smiles": "CC(C)(c1ccc(O)cc1)c1ccc(O)cc1", "note": "[Chemical P159, bisphenol A]", "values": [
      {"measurement": "luciferase activity in BG1Luc4E2 cells, initial library screen", "setting": "BG1Luc4E2 cells [2]", "value": "high activity"}
    ]},
    {"smiles": "C[C@]12CC[C@@H]3c4ccc(O)cc4CC[C@H]3[C@@H]1CC[C@@H]2O", "note": "[Chemical E2, 17β-estradiol]", "values": [
      {"measurement": "MDL (minimal detection limit) [M], BG1Luc4E2", "setting": "BG1Luc4E2 cells [2]", "value": "3e-12", "unit": "M"},
      {"measurement": "EC50", "setting": "BG1Luc4E2 cells [2]; Homo sapiens", "value": "1.6e-11", "unit": "M"},
      {"measurement": "Maximum Induction (RLU), BG1Luc4E2", "setting": "BG1Luc4E2 cells [2]", "value": "10,594 ± 250 RLU"},
      {"measurement": "MDL (minimal detection limit) [M], BG1LucERβc9", "setting": "BG1LucERβc9 cells [3]", "value": "1e-12", "unit": "M"},
      {"measurement": "EC50", "setting": "BG1LucERβc9 cells [3]; Homo sapiens", "value": "1.3e-11", "unit": "M"},
      {"measurement": "Maximum Induction (RLU), BG1LucERβc9", "setting": "BG1LucERβc9 cells [3]", "value": "5,236 ± 71 RLU"}
    ]},
    {"smiles": "CCNc1nc(Cl)nc(NC(C)(C)C#N)n1", "note": "[Chemical P12, cyanazine]", "values": [
      {"measurement": "luciferase activity in BG1Luc4E2 cells, initial library screen", "setting": "BG1Luc4E2 cells [2]", "value": "not inducing significant luciferase activity above background"}
    ]}
  ]
}
